US20140259191A1, “FISH ANESTHETIC AND METHOD” (AQUA-MOR TECHNOLOGIES LTD., priority 2011, published 2014)

Key:
Koi fish = test: Anesthesia of Koi fish by linalool added to tank water; type: in vivo
Procedure: A one year old koi fish of body length 11 cm and which appeared to be healthy was placed in a 4 liter tank containing water at 25° C. and in which the water was circulated by means of aeration. A liquid a mixture containing 1 wt. % synthetic linalool (1 wt. % linalool, 5 wt. % 14R, 2 wt. % AF80 and 92 wt. % water) was added to the tank and manually mixed with the water so that the concentration of linalool in the water was 50 ppm. This was regarding as the starting time of the experiment; thereafter, observations were made regularly to determine the behavior of the fish in water. This continued until no response to external stimulation and complete loss of equilibrium were observed, at which point the fish was transferred to a recovery tank containing fresh water. The fish was placed near the air pump, and the time until the fish again swam and responded normally to external stimulation was recorded.
(§1) The experiment of Example 1 was repeated, using a one year old Koi fish of 12 cm body length, and adding the linalool formulation to a linalool concentration in the water of 75 ppm instead of 50 ppm. After 2 minutes of exposure to linalool the fish appeared to be in slight stress. […] At 20 minutes the fish was removed to a recovery tank with clean water. Thereafter it recovered slowly and after 40 minutes was swimming around in the tank and appeared to have resumed normal activity.
as §1, with “12.5” for “12”, “100” for “75”, “ppm.” for “ppm. After 2 minutes of exposure to linalool the fish appeared to be in slight stress.”, “6” for “20”, “30” for “40”
To a four liter tank containing three one-year old Koi fish of respective weights 30 g, 29 g and 31 g and respective body lengths 11 cm, 12 cm and 12.5 cm in water at 21° C. and pH 7 was added a formulation containing 1% linalool. The formulation was added to the water to a linalool concentration of 50 ppm in the water. The fish became relaxed 6 minutes after addition of linalool and after 9 minutes were completely anesthetized. At 9 5 minutes the fish were removed to a recovery tank with fresh water. After 40 minutes in the recovery tank the fish resumed normal behavior.

carp fish = test: Anesthesia of carp by linalool added to tank water; type: in vivo, Cyprinus carpio; details: for time after addition of linalool until fish became relaxed / time until fish completely anesthetized: pH 7
Procedure: To a 100 liter tank containing 462 10-month old carp fish (Cyprinus carpio) of average weight 70 g and average body length 10 cm, having water at 25° C. at pH 7 was added a formulation containing 1% linalool. The formulation was added to the water to a linalool concentration of 75 ppm in the water. The fish became relaxed 3 minutes after addition of linalool and after 5 minutes were completely anesthetized. After 15 minutes the fish were removed to a recovery tank with fresh water. After 20 minutes in the recovery tank the fish resumed normal behavior.
(§2) To a 20 liter tank containing eight 2.5-year old carp fish of average weight 1 kg and average body length 50 cm in water at 20° C. and pH 7 was added a formulation containing 1% linalool. The formulation was added to the water to a linalool concentration of 100 ppm in the water. The fish became relaxed 2 minutes after addition of linalool and after 3 minutes were completely anesthetized. At 3 minutes the fish were removed to a recovery tank with fresh water. After 7 minutes in the recovery tank the fish resumed normal behavior.
To a 20 liter tank containing eight 1.8-year old carp fish of average weight 250 g and body length 21-24 cm in water at 20° C. and pH 7 was added a formulation containing 1% linalool. The formulation was added to the water to a linalool concentration of 50 ppm in the water. The fish became relaxed 3 minutes after addition of linalool and after 7 minutes were completely anesthetized. At 17 minutes the fish were removed to a recovery tank with fresh water. After 29 minutes in the recovery tank the fish resumed normal behavior.
as §2, with “2.2-year” for “2.5-year”, “380 g” for “1 kg”, “and” for “and average”, “30-32” for “50”, “At 17” for “After 7”

catfish = test: Anesthesia of catfish by linalool added to tank water; type: in vivo, Clarias gariepinus; details: 100 ppm linalool
Procedure: To a four liter tank containing […] 10-month old catfish (Clarias gariepinus) of respective weights 31 g, 14 g, 24 g and 9 g and respective body lengths 17 cm, 13 cm, 16 cm and 10 cm in water at 31° C. and pH 7 was added a formulation containing 1% linalool. The formulation was added to the water to a linalool concentration of 100 ppm in the water. The fish became relaxed 2 5 minutes after addition of linalool and after 4 minutes were completely anesthetized. At 5.5 minutes the fish were removed to a recovery tank with fresh water. After 7 minutes in the recovery tank the fish resumed normal behavior.

[1] = Example 1: Koi 11 cm, 50 ppm linalool in water, 25° C.
[2] = Example 2: Koi 12 cm, 75 ppm linalool in water
[3] = Example 3: Koi 12.5 cm, 100 ppm linalool in water
[4] = Example 18: three Koi 29-31 g, 50 ppm linalool, 21° C., pH 7
[5] = Example 13: 462 carp, average 70 g, 75 ppm linalool, 25° C.
[6] = Example 14: eight carp, average 1 kg, 100 ppm linalool, 20° C.
[7] = Example 15: eight carp, average 250 g, 50 ppm linalool, 20° C.
[8] = Example 16: eight carp, average 380 g, 100 ppm linalool, 20° C.

## C=CC(C)(O)CCC=C(C)C (stereo not shown) [linalool]
Koi fish; [1]
  time of exposure until complete loss of equilibrium: 6.5 min
  time of exposure until fish swam on its back: 8 min
  time of exposure until no response to external stimulation: 9 min
  time of exposure until partial loss of equilibrium: 5.5 min
  time of exposure until slight stress: 2.5 min
Koi fish; Example 1: Koi 11 cm, 50 ppm linalool, removed to clean water at 9.5 minutes
  time in recovery tank until normal activity resumed: 45 min
Koi fish; [2]
  time of exposure until complete loss of equilibrium: 7 min
  time of exposure until no response to external stimulation: 9 min
  time of exposure until slight stress: 2 min
Koi fish; Example 2: Koi 12 cm, 75 ppm linalool, removed to clean water at 20 minutes
  time in recovery tank until normal activity resumed: 40 min
Koi fish; [3]
  time of exposure until complete loss of equilibrium: 4 min
  time of exposure until no response to external stimulation: 5.5 min
  time of exposure until partial loss of equilibrium: 2.5 min
Koi fish; Example 3: Koi 12.5 cm, 100 ppm linalool, removed to clean water at 6 minutes
  time in recovery tank until normal activity resumed: 30 min
Koi fish; Example 18: Koi, 50 ppm linalool, 21° C., removed at 9 5 minutes
  time in recovery tank until normal behavior resumed: 40 min
Koi fish; [4]
  time after addition of linalool until fish became relaxed: 6 min
  time until fish completely anesthetized: 9 min
Carp fish; [5]
  time after addition of linalool until fish became relaxed: 3 min
  time until fish completely anesthetized: 5 min
Carp fish; Example 13: carp 70 g, 75 ppm linalool, removed after 15 minutes
  time in recovery tank until normal behavior resumed: 20 min
Carp fish; Example 14: carp 1 kg, 100 ppm linalool, removed at 3 minutes
  time in recovery tank until normal behavior resumed: 7 min
Carp fish; [6]
  time after addition of linalool until fish became relaxed: 2 min
  time until fish completely anesthetized: 3 min
Carp fish; Example 15: carp 250 g, 50 ppm linalool, removed at 17 minutes
  time in recovery tank until normal behavior resumed: 29 min
Carp fish; [7]
  time after addition of linalool until fish became relaxed: 3 min
  time until fish completely anesthetized: 7 min
Carp fish; Example 16: carp 380 g, 100 ppm linalool, removed at 3 minutes
  time in recovery tank until normal behavior resumed: 17 min
Carp fish; [8]
  time after addition of linalool until fish became relaxed: 2 min
  time until fish completely anesthetized: 3 min
catfish; Example 19: catfish 9-31 g, 31° C., pH 7
  time until fish completely anesthetized: 4 min
catfish; Example 19: catfish, removed at 5.5 minutes
  time in recovery tank until normal behavior resumed: 7 min
